Experimental data published in article PMC9325490, “Overcoming Multidrug Resistance (MDR): Design, Biological Evaluation and Molecular Modelling Studies of 2,4‐Substituted Quinazoline Derivatives” (Chemmedchem, 2022).
“Also recorded” adds a separate entry of the source.

Legend:
HT29/DX cells [1] = experiment: Intracellular doxorubicin accumulation in HT29/DX cells
Protocol: (§2) Cells were collected and the intracellular drug content was measured fluorimetrically as detailed previously,[47] using a Synregy HTX 96‐well plate reader (Bio‐Tek Instruments, Winooski, VT). The results were expressed as nmol doxorubicin/mg cell proteins, according to a titration curve previously set. […] A second series of dishes, after the incubation with doxorubicin formulations under the same experimental conditions, were left for further 10 min at 37 °C, then washed and tested for the intracellular drug content. The difference of doxorubicin concentration between the two series, expressed as nmol doxorubicin extruded/min/mg cell protein was plotted versus the initial drugs’ concentration. Values were fitted to Michaelis‐Menten equation to calculate Vmax and Km, using the Enzfitter software (Biosoft Corporation, Cambridge, United Kingdom).[47]

HT29/DX cells [2] = experiment: Co-administration assay with doxorubicin (MTT) in HT29/DX cells; assay type: cell-based
Protocol: (§1) The co‐administration assay with Doxorubicin was performed in MDCK‐MDR1, HT29 and HT29/DX cells at 48 h as reported with minor modifications.[49] […] On day 2, the tested drug was added alone to the cells at different concentrations (10 nM, 100 nM, 500 nM, 1 μM, 10 μM). On day 3, the medium was removed and the drug at the same concentrations was added alone and in co‐administration with 10 μM Doxorubicin to the cells. After the established incubation time with the tested drug, MTT (0.5 mg/mL) was added to each well, and after 3–4 h incubation at 37 °C, the supernatant was removed. The formazan crystals were solubilized using 100 μL of DMSO/EtOH (1 : 1), and the absorbance values at 570 and 630 nm were determined on the microplate reader Victor 3 from PerkinElmer Life Sciences.

HT29 cells [3] = experiment: Intracellular doxorubicin accumulation in HT29 cells; settings: 24 h, doxorubicin 10 μM + compound 100 nM-10 μM
Protocol: as §2

HT29 cells [4] = experiment: Co-administration assay with doxorubicin (MTT) in HT29 cells; assay type: cell-based
Protocol: as §1

P-gp [5] = experiment: Apparent permeability (Papp, BA/AB) in Caco-2 cell monolayer; settings: human, Caco-2, P app (BA/AB), two experiments in duplicate
Protocol: (§3) Compounds displaying a BA/AB >2 but not inducing an ATP cell depletion are classified as class IIB3 substrates.[43]
(§4) Caco‐2 cells were seeded onto a Millicell assay system (Millipore), in which a cell monolayer was set in between a filter cell and a receiver plate at a density of 20000 cells/well. The culture medium was replaced every 48 h, and the cells were kept for 21 days in culture. The trans epithelial electrical resistance (TEER) of the monolayers was measured daily, before and after the experiment, by using an epithelial voltohmmeter (Millicell‐ERS). Generally, TEER values greater than 1000 Ω for a 21 day culture are considered optimal.
(§5) After 21 days of Caco‐2 cell growth, the medium was removed from the filter wells and from the receiver plate, and they were filled with fresh Hank's balanced salt solution (HBSS) buffer (Invitrogen). This procedure was repeated twice, and the plates were incubated at 37 °C for 30 min. After the incubation time, the HBSS buffer was removed, and drug solutions and reference compounds were added to the filter well at a concentration of 100 μM, whereas fresh HBSS was added to the receiver plate. The plates were incubated at 37 °C for 120 min. Afterward, samples were removed from the apical (filter well) and basolateral (receiver plate) side of the monolayer to measure the permeability. The apparent permeability (Papp ), in units of nms‐1, was calculated by using the same equation reported above.

P-gp [6] = target: T1, P-gp (Homo sapiens, UniProt P08183); experiment: Calcein-AM transport inhibition in MDCK-MDR1 cells; settings: for EC50 P-gp: MDCK-MDR1 cells overexpressing P-gp, calcein-AM, mean ±SEM of two experiments in triplicate
T1 sequence (P08183 whole entry): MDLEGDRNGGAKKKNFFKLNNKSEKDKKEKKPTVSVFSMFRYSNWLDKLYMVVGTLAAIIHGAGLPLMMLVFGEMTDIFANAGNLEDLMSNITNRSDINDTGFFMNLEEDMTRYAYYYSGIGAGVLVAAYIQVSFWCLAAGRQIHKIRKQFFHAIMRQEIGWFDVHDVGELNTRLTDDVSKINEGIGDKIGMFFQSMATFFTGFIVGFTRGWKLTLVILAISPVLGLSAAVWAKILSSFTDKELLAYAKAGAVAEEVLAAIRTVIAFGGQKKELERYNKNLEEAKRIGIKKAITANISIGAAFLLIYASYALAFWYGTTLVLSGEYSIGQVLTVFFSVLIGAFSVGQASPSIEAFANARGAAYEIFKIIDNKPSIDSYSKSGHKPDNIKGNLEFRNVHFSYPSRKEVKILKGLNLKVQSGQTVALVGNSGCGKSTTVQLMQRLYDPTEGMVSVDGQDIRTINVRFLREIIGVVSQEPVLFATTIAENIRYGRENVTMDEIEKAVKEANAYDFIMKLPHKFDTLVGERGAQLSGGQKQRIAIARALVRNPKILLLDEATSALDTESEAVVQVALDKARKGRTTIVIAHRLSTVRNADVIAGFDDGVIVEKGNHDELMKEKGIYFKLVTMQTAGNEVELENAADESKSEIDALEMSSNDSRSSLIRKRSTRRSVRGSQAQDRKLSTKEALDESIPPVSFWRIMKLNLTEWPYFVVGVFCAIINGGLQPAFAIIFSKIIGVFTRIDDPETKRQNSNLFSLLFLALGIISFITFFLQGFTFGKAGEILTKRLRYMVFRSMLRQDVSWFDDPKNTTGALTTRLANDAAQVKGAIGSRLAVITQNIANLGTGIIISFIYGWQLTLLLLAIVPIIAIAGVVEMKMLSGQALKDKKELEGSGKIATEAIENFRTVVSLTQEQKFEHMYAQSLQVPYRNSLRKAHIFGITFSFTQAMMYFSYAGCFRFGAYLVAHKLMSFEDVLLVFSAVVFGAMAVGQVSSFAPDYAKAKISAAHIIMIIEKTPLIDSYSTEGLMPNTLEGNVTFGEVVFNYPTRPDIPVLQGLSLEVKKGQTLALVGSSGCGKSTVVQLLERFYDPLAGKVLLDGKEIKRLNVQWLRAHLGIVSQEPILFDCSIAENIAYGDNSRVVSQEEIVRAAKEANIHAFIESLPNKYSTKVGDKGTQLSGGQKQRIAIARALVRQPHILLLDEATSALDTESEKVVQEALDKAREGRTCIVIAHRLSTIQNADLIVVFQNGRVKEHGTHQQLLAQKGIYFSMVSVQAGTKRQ
Protocol: (§6) The new compounds were tested for their activity toward P‐gp and the other two MDR sister proteins, MRP1 and BCRP, by measuring the inhibition of the transport of the profluorescent probe calcein‐AM (P‐gp and MRP1 substrate) in cells overexpressing P‐gp and MRP1 (MDCK‐MDR1 and MDCK‐MRP1 cells, respectively) and of the fluorescent probe Hoechst 33342 (BCRP substrate) in cells overexpressing BCRP (MDCK‐BCRP cells).
Each cell line (30,000 cells per well) was seeded into black CulturePlate 96/wells plate with 100 μL medium and allowed to become confluent overnight. 100 μL of test compounds, solubilized in culture medium, were added to monolayers, with final concentrations ranging from 0.1 to 100 μM. Thus, after a 30 min incubation time at 37 °C, calcein‐AM was added in 100 μL of Phosphate Buffered Saline (PBS) to the 96/wells plate to yield a final concentration of 2.5 μM; the plate was then incubated for 30 min. Each well was washed 3 times with ice cold PBS and saline buffer was added to each well and the plate read with Victor3 (PerkinElmer) at excitation and emission wavelengths of 485 nm and 535 nm, respectively. In these experimental conditions, calcein cell accumulation in the absence and in the presence of tested compounds was evaluated and fluorescence basal level was estimated with untreated cells. In treated wells, the increase of fluorescence with respect to basal level was measured. EC50 values were determined by fitting the fluorescence increase percentage versus log[dose].

P-gp [7] = target: T1, P-gp; experiment: ATP cell depletion (ATPlite assay) in MDCK-MDR1 cells; settings: Yes/No
Protocol: In addition, the P‐gp interacting profile of the new compounds was evaluated by the combination of the inhibition of the efflux of calcein‐AM in MDCK‐MDR1 cells test with other two assays: the apparent permeability (Papp ) determination in the Caco‐2 cell monolayer, and the ATP cell depletion in MDCK‐MDR1 cells. […] This last information is completed by the ATP cell depletion assay, which measures the total ATP cell level in the MDCK cells overexpressing only P‐gp: in this setting, the observed effect can be mainly ascribed to the overexpressed transporter.[42]
The MDCK‐MDR1 cells seeded into 96‐well microplate in 100 μL of complete medium at a density 2×10^4 cells/well were incubated overnight (O/N) in a humidified atmosphere 5 % CO2 at 37 °C. The medium was removed and 100 μL of complete medium either alone or containing different concentrations of test compounds were added. The plate was incubated for 2 h in a humidified 5 % CO2 atmosphere at 37 °C. 50 μL of mammalian cell lysis solution was added to all wells and the plate shaken for five minutes in an orbital shaker. 50 μL of substrate solution was added to all wells and the plate shaken for five minutes in an orbital shaker. The plate was dark adapted for ten minutes and the luminescence was measured.

MRP1 = MRP1 (Homo sapiens, UniProt P33527); experiment: cell-based
Sequence of MRP1 (P33527 whole entry): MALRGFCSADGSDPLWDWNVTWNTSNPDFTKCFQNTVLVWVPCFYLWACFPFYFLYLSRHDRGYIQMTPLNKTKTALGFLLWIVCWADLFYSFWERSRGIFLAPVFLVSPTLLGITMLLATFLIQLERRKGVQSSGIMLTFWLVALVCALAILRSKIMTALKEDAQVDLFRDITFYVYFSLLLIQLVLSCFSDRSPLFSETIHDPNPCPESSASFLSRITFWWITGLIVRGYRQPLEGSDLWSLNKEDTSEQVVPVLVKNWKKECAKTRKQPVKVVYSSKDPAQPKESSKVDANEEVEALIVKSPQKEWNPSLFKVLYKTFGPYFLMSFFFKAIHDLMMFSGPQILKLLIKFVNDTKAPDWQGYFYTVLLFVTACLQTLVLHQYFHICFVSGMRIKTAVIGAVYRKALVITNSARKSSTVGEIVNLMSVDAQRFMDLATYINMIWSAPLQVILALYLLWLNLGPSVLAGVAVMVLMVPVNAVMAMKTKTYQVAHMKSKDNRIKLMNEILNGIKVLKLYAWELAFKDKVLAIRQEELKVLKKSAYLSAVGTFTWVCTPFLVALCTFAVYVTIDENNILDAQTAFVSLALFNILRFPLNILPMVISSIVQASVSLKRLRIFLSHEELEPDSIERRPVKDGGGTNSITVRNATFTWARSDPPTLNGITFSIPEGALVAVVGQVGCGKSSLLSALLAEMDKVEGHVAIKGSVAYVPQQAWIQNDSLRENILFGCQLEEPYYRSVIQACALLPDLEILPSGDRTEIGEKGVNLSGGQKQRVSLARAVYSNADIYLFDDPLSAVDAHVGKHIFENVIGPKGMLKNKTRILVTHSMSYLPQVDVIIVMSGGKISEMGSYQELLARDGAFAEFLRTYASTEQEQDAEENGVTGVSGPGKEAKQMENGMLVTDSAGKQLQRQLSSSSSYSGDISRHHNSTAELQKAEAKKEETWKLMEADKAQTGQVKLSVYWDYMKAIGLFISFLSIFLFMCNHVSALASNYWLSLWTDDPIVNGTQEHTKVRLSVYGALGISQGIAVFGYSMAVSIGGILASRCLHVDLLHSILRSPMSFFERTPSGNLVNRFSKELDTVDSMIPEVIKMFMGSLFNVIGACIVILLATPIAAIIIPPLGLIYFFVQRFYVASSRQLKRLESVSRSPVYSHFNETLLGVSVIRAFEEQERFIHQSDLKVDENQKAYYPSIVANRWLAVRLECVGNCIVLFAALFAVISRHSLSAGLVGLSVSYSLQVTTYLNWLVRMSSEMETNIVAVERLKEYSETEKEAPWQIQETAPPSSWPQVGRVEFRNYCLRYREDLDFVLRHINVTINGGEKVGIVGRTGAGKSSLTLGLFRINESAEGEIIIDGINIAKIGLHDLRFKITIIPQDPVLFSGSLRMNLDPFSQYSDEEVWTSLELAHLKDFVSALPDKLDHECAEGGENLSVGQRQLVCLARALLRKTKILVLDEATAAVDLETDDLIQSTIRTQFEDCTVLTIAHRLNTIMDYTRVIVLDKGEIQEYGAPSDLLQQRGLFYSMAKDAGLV
Protocol: as §6
Each cell line (30,000 cells per well) was seeded into black CulturePlate 96/wells plate with 100 μL medium and allowed to become confluent overnight. 100 μL of test compounds, solubilized in culture medium, were added to monolayers, with final concentrations ranging from 0.1 to 100 μM. […] Each well was washed 3 times with ice cold PBS and saline buffer was added to each well and the plate read with Victor3 (PerkinElmer) at excitation and emission wavelengths of 485 nm and 535 nm, respectively. In these experimental conditions, calcein cell accumulation in the absence and in the presence of tested compounds was evaluated and fluorescence basal level was estimated with untreated cells. In treated wells, the increase of fluorescence with respect to basal level was measured. EC50 values were determined by fitting the fluorescence increase percentage versus log[dose].

Caco-2 cell monolayer = experiment: Apparent permeability (Papp, BA/AB) in Caco-2 cell monolayer; settings: BA/AB ratio, two experiments in duplicate
Protocol: as §3, §4, §5

P-gp [8] = target: T1, P-gp; experiment: P-gp interacting profile (combination of calcein-AM, Papp and ATP cell depletion assays); settings: classification from Papp, calcein-AM inhibition and ATP cell depletion
Protocol: In addition, the P‐gp interacting profile of the new compounds was evaluated by the combination of the inhibition of the efflux of calcein‐AM in MDCK‐MDR1 cells test with other two assays: the apparent permeability (Papp ) determination in the Caco‐2 cell monolayer, and the ATP cell depletion in MDCK‐MDR1 cells. […] This last information is completed by the ATP cell depletion assay, which measures the total ATP cell level in the MDCK cells overexpressing only P‐gp: in this setting, the observed effect can be mainly ascribed to the overexpressed transporter.[42] […] Compounds displaying a BA/AB >2 but not inducing an ATP cell depletion are classified as class IIB3 substrates.[43]

BCRP = target: T2, BCRP (Homo sapiens, UniProt Q9UNQ0); experiment: Hoechst 33342 transport inhibition in MDCK-BCRP cells; assay type: cell-based; settings: MDCK-BCRP cells overexpressing BCRP, mean ±SEM
T2 construct: expressed in transfected cells; host or cells: MDCK-BCRP (Madin-Darby Canine Kidney, transfected); gift of Prof; P. Borst, NKI-AVL
T2 sequence (Q9UNQ0 1-655): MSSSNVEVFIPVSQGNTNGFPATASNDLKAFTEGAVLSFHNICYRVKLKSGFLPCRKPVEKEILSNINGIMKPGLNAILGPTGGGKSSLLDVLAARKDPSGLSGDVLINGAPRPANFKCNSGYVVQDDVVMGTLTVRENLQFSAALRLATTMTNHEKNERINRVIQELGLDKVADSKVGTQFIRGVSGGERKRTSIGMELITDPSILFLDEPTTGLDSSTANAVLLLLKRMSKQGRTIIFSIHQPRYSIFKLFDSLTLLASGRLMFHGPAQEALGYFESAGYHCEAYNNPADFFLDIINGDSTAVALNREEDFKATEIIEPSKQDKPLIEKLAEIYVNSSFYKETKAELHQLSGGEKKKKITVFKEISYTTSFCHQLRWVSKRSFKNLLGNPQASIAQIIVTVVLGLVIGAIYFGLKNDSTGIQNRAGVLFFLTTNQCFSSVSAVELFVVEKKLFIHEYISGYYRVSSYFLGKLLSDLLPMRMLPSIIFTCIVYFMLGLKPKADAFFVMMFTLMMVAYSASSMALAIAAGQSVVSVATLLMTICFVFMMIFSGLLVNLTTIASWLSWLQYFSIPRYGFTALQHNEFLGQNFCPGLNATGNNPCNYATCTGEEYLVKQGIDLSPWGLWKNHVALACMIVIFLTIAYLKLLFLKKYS
Protocol: Each cell line (30,000 cells per well) was seeded into black CulturePlate 96/wells plate with 100 μL medium and allowed to become confluent overnight. 100 μL of test compounds, solubilized in culture medium, were added to monolayers, with final concentrations ranging from 0.1 to 100 μM. After 30 min incubation time at 37 °C, Hoechst 33342 was added in 100 μL of Phosphate Buffered Saline (PBS) to yield a final concentration of 8 μM to the 96/wells plate and the plate incubated for 30 min. The supernatants were drained and the cells were fixed for 20 min under light protection using 100 μL per well of a 4 % PFA solution. Each well was washed 3 times with ice cold PBS and saline buffer added to each well and the plate read with Victor3 (PerkinElmer) at excitation and emission wavelengths of 340/35 nm and 485/20 nm, respectively. In these experimental conditions, Hoechst 33342 accumulation in the absence and in the presence of tested compounds was evaluated and fluorescence basal level was estimated with untreated cells. In treated wells the increase of fluorescence with respect to basal level was measured. EC50 values were determined by fitting the fluorescence increase percentage versus log[dose].

HT29 cells [9] = experiment: Kinetic parameters of doxorubicin efflux in HT29 cells
Protocol: as §2

HT29/DX cells [10] = experiment: Kinetic parameters of doxorubicin efflux in HT29/DX cells
Protocol: as §2

[11] = absence or presence of 10 μM compound 1 e
[12] = read-out: Km of doxorubicin efflux, absence or presence of 10 μM compound 1 e

Compound	efflux ratio at 120 min, 100 μM (P-gp [5])	ATP cell depletion (P-gp [7])	EC50 (P-gp [6]) [nM]	other results
COc1cc2c(cc1OC)CN(c1nc(/C=C/c3cc(OC)c(OC)c(OC)c3)nc3ccccc13)CC2 [Compound 1 e, (E)‐4‐(6,7‐Dimethoxy‐3,4‐dihydroisoquinolin‐2(1H)‐yl)‐2‐(3,4,5‐trimethoxystyryl)quinazoline]	–	–	–	effect on intracellular doxorubicin content (HT29/DX cells [1]; HT29/DX cells, 24 h, doxorubicin 10 μM + compound 100 nM-10 μM): progressively increased it; cell viability, compound alone (HT29/DX cells [2]; HT29/DX (doxorubicin-resistant) cells): did not significantly reduce cell viability; viability with doxorubicin co-administration (HT29/DX cells [2]; HT29/DX cells, doxorubicin 10 μM + compound 10 μM): reduced at the same extent of doxorubicin‐sensitive cells; effect on intracellular doxorubicin content (HT29 cells [3]): did not modify the intracellular drug content; cell viability, compound alone (HT29 cells [4]; HT29 (doxorubicin-sensitive) cells): did not significantly reduce cell viability
c1ccc(CCNc2nc(-c3c4ccccc4cc4ccccc34)nc3ccccc23)cc1 [Compound 3 b, 2‐(Anthracen‐9‐yl)‐N‐phenethylquinazolin‐4‐amine]	10.5	–	–	EC50 P-gp (P-gp [6]): not active; melting point: 236 to 238 °C (dec.)
COc1ccc(-c2nc(NCCc3ccccc3)c3ccccc3n2)c(OC)c1OC [Compound 4 b, N‐Phenethyl‐2‐(2,3,4‐trimethoxyphenyl)quinazolin‐4‐amine]	14.8	No	1410 ± 250	EC50 (MRP1): 52000 ± 10100 nM
COc1ccc(-c2nc(N3CCOCC3)c3ccccc3n2)c(OC)c1OC [Compound 4 c, 4‐(2‐(2,3,4‐Trimethoxyphenyl)quinazolin‐4‐yl)morpholine]	3.8	No	9550 ± 1800	–
COc1ccc(C(c2ccc(OC)cc2)c2nc(Nc3ccc(CCN4CCc5cc(OC)c(OC)cc5C4)cc3)c3ccccc3n2)cc1 [Compound 7 a, 2‐(Bis(4‐methoxyphenyl)methyl)‐N‐(4‐(2‐(6,7‐dimethoxy‐3,4‐dihydroisoquinolin‐2(1H)‐yl)ethyl)phenyl)quinazolin‐4‐amine]	32.9	No	110 ± 20	–
COc1ccc(C(c2ccc(OC)cc2)c2nc(N3CCOCC3)c3ccccc3n2)cc1 [Compound 7 c]	< 2	do not inducing ATP cell depletion and No	2130 ± 400	P app (BA/AB) (Caco-2 cell monolayer): 1.5; P-gp interacting profile (P-gp [8]): P‐gp inhibitor; also recorded: pure inhibitor
COc1ccc(C(c2ccc(OC)cc2)c2nc(N3CCN(C)CC3)c3ccccc3n2)cc1 [Compound 7 d, 2‐(Bis(4‐methoxyphenyl)methyl)‐4‐(4‐methylpiperazin‐1‐yl)quinazoline]	6.9	No	960 ± 180	EC50 (MRP1): 43200 ± 8500 nM; EC50 (BCRP): 8620 ± 1600 nM
COc1cccc2c1C(=O)c1c(O)c3c(c(O)c1C2=O)C[C@@](O)(C(=O)CO)C[C@@H]3O[C@H]1C[C@H](N)[C@H](O)[C@H](C)O1 [Doxo, doxorubicin]	–	–	–	intracellular doxorubicin retained, doxorubicin alone (HT29/DX cells [1]; HT29/DX cells compared with HT29 cells): retained a lower amount of doxorubicin; Vmax of doxorubicin efflux (HT29 cells [9]; [11]): 3.15 ± 0.07 µmol/min; Km (HT29 cells [9]; [12]): 0.53 ± 0.06 µM; Vmax of doxorubicin efflux (HT29/DX cells [10]; [11]): 8.05 ± 0.64 µmol/min; Km (HT29/DX cells [10]; [12]): 0.52 ± 0.06 µM; viable cells, doxorubicin alone (HT29 cells [4]; HT29 cells, doxorubicin 10 μM): significant decrease in viable cells
COc1cc2c(cc1OC)CN(CCc1ccc(NC(=O)c3cccc4c(=O)c5cccc(OC)c5[nH]c34)cc1)CC2 [elacr, elacridar, reference compound]	–	Yes^[e]	–	–
COc1cc2c(cc1OC)CN(CCc1ccc(NC(=O)c3cc(OC)c(OC)cc3NC(=O)c3cnc4ccccc4c3)cc1)CC2 [tariq, tariquidar, reference compound]	> 20	Yes^[d]	–	–

The next lines start with results.

efflux ratio at 120 min, 100 μM (P-gp [5])	ATP cell depletion (P-gp [7])	EC50 (P-gp [6]) [nM]	Compound	other results
20	–	–	c1ccc2c(-c3nc(N4CCOCC4)c4ccccc4n3)c3ccccc3cc2c1 [Compound 3 c, 4‐(2‐(Anthracen‐9‐yl)quinazolin‐4‐yl)morpholine]	EC50 P-gp (P-gp [6]): not active
18.5	No	1140 ± 200	COc1cc2c(cc1OC)CN(c1nc(-c3c4ccccc4cc4ccccc34)nc3ccccc13)CC2 [Compound 3 e, 2‐(Anthracen‐9‐yl)‐4‐(6,7‐dimethoxy‐3,4‐dihydroisoquinolin‐2(1H)‐yl)quinazoline]	–
5.4	No	6060 ± 1200	COc1ccc2ccccc2c1-c1nc(N2CCN(C)CC2)c2ccccc2n1 [Compound 5 d, 2‐(2‐Methoxynaphthalen‐1‐yl)‐4‐(4‐methylpiperazin‐1‐yl)quinazoline]	–
19.2	No	200 ± 40	COc1cc2c(cc1OC)CN(CCc1ccc(Nc3nc(-c4c(OC)c(OC)cc5ccccc45)nc4ccccc34)cc1)CC2 [Compound 6 a, N‐(4‐(2‐(6,7‐Dimethoxy‐3,4‐dihydroisoquinolin‐2(1H)‐yl)ethyl)phenyl)‐2‐(2,3‐dimethoxynaphthalen‐1‐yl)quinazolin‐4‐amine]	–
8.4	No	160 ± 26	COc1ccc(C(c2ccc(OC)cc2)c2nc(N3CCc4cc(OC)c(OC)cc4C3)c3ccccc3n2)cc1 [Compound 7 e, 2‐(Bis(4‐methoxyphenyl)methyl)‐4‐(6,7‐dimethoxy‐3,4‐dihydroisoquinolin‐2(1H)‐yl)quinazoline]	–
